Data: patent US20030089885A1, “Use of low molecular weight acetal, alcohol, acylated alcohol and ester compounds to block or reduce odor of carboxylic acids” (Senomyx, Inc., priority 2001, published 2003)

Key:
isovaleric acid [1] = test: Malodor Reduction Test (cross-adaptation, Labeled Magnitude Scale); format: in vivo; conditions: Homo sapiens, inhaled or nasal; 1% (v/v) test substance in diethylphthalate sniffed before 56 ppm aqueous isovaleric acid; perceived intensity on LMS
Procedure: a) Malodor Reduction Test
Each subject's sense of smell was tested using a smell identification test and an isovaleric acid threshold test. To pass the smell ID test the subject had to correctly identify the aromas of peach, spearmint, cinnamon, lime, pineapple and clove. To pass the isovaleric acid threshold test subjects had to detect the odor of isovaleric acid in a one part-per-million (1 ppm weight/volume) aqueous isovaleric acid solution. This is above the 0.12 ppm threshold for a person with a normal sense of smell and below the 5.0 ppm threshold for a person with a specific anosmia to isovaleric acid (Amoore 1977). The use of an odor ID and a threshold test to identify subjects with a normal sense of smell is standard practice, (Cain, Gent et al. 1983).
The target malodor, isovaleric acid, was presented to the subject in a 60 mL, wide mouth amber, screw cap jar. The concentration of isovaleric acid in water that gave an odor intensity of strong or higher on the Labeled Magnitude Scale was 56 parts-per-million (weight/volume). Five milliliters of a 1% (v/v) solution of the test substance in diethylphthalate (DEP) presented in a 20 ml glass vial were used to evaluate the blocker candidate. The labeled the Labeled Magnitude Scale (LMS, FIG. 1) was developed for the quantitative measurement of taste, irritation and odor intensities (Green, Shaffer et al. 1993; Green, Dalton et al. 1996).
Evaluation of a sample for malodor blocking was as follows: a) The subject sniffed the isovaleric acid (target) with both nostrils and scored its intensity using the Labeled Magnitude Scale (LMS), b) The subject waited one minute, c) the subject sniffed the candidate compound twice with the left and then twice with the right nostril, d) the subject sniffed the isovaleric acid target sample within 20 seconds with both nostrils and scored its odor using the LMS, and e) the subject waited for two minutes before proceeding to the next test substance.
The percent malodor reduction (% MOR) was calculated using the following formula:
% MOR=[1−(IVAInt after CA/IVAINT before CA)]×100 where: IVA isovaleric acid
The ratio in this equation goes from zero (complete blocking) to one (no blocking). The % malodor reduction moves in the opposite direction and goes from 100% for complete blocking to 0% for no blocking.
Tables 1, 2, and 3 present the percent malodor reduction for some low molecular weight acetals, alcohols and esters respectively. In each of these tables the standard error of the mean is the standard deviation of the mean divided by the square root of the number of subjects used for the evaluation.

isovaleric acid [2] = test: Deodorant stick containing 1% malodor reduction compound, sniff test; format: in vivo, human; conditions: compound at 1% by weight of deodorant stick; stick sniffed twice before 56 ppm aqueous isovaleric acid
Excerpt: A conventional deodorant stick composition, for example one with the following composition:
is modified by the addition of compound having a malodor reduction value of 80% or more as measured by the malodor reduction test presented in Example 1 in an amount such that it accounts for 1% by weight of the deodorant stick. […] Examples of effective compounds are: 2-Isobutyl-[1,3]dioxane, 2-Isobutyl-4,5-dimethyl-[1,3]dioxolane, 2-Isobutyl-4-methyl-[1,3]dioxane, 2-Isobutyl-4-methyl-[1,3]dioxolane, 1,1-Dimethoxy-3-methyl-butane, 2-lsobutyl-[1,3]dioxolane, 2-(2-Methyl-cyclopropyl)-[1,3]dioxolane, 2-Isobutyl-5-methyl-[1,3]dioxane, 2-Methylcyclopropane methanol, Ethyl isovalerate, Methyl isovalerate, 2-Methyl-cyclopropanecarboxylic acid methyl ester, n-Propyl isovalerate, and 2-Methyl-cyclopropanecarboxylic acid ethyl ester.

SMILES	inhibition in vivo at 1 % v/v (isovaleric acid [1]) [%]	block of the perception of isovaleric acid by deodorant stick (isovaleric acid [2])
CCOC(=O)CC(C)C [Ethyl isovalerate]	94	completely block
CC(C)CC1OC(C)C(C)O1 (stereo not drawn) [2-Isobutyl-4,5-dimethyl-[1,3]dioxolane, 2-Isobutyl-4,5-dimethyl-[1,3]dioxolane]	89	completely block
COC(=O)CC(C)C [Methyl isovalerate]	–	completely block
CC(C)CC1OCC(C)CO1 (stereo not drawn) [2-Isobutyl-5-methyl-[1,3]dioxane, 2-Isobutyl-5-methyl-[1,3]dioxane]	80	completely block
COC(CC(C)C)OC [1,1-Dimethoxy-3-methyl-butane, 1,1-Dimethoxy-3-methyl-butane]	87	completely block
OCCC1CC1 [2-Cyclopropylethanol]	74	–
CC1(CCO)CC1 [2-(1-Methyl-cyclopropyl)-ethanol, 2-(1-Methyl-cyclopropyl)-ethanol]	72	–
CC(C)CC1OCC(C)O1 (stereo not drawn) [2-Isobutyl-4-methyl-[1,3]dioxolane, 2-Isobutyl-4-methyl-[1,3]dioxolane]	89	completely block
CC(C)CCO [Isoamyl Alcohol]	73	–
CC(C)CC1OCCCO1 [2-Isobutyl-[1,3]dioxane]	97	completely block
CC1CC1CCO (stereo not drawn) [2-(2-Methyl-cyclopropyl)-ethanol, 2-(2-Methyl-cyclopropyl)-ethanol]	77	–
COC(=O)C1CC1C (stereo not drawn) [2-Methyl-cyclopropanecarboxylic acid methyl ester]	89	completely block
CC(=O)OCCC(C)C [Isoamylacetate]	67	–
CC1CC1CO (stereo not drawn) [2-Methylcyclopropane methanol]	85	completely block
CC(C)CC(=O)OC(C)C [Isopropyl isovalerate]	74	–
CC(C)OC(=O)C1CC1C (stereo not drawn) [2-Methyl-cyclopropanecarboxylic acid isopropyl ester]	68	–
CCOC(=O)C1CC1C (stereo not drawn) [2-Methyl-cyclopropanecarboxylic acid ethyl ester]	81	completely block
CCC1COC(CC(C)C)O1 (stereo not drawn) [4-Ethyl-2-isobutyl-[1,3]dioxolane, 4-Ethyl-2-isobutyl-[1,3]dioxolane]	78	–
CCCOC(=O)CC(C)C [n-Propyl isovalerate]	83	completely block
CC1CC1C1OCCO1 (stereo not drawn) [2-(2-Methyl-cyclopropyl)-[1,3]dioxolane, 2-(2-Methyl-cyclopropyl)-[1,3]dioxolane]	85	completely block
CC(C)CC1OCCO1 [2-Isobutyl-[1,3]dioxolane]	87	completely block
CC(C)CC1OCCC(C)O1 (stereo not drawn) [2-Isobutyl-4-methyl-[1,3]dioxane, 2-Isobutyl-4-methyl-[1,3]dioxane]	92	completely block
CCOC(CC(C)C)OCC [1,1-Diethoxy-3-methyl-butane, 1,1-Diethoxy-3-methyl-butane]	78	–
